# Data as given in publication PMC12259270, “Sensory neuron–expressed FGF13 controls nociceptive signaling in diabetic neuropathy models” (The Journal of Clinical Investigation, 2025).
# “And” between values parts separate entries of the source, which are not always exact repeats. Identical values can stand only once. Residues, ends and D or L forms follow the SMILES beside them. *: point of attachment. NHPh = c1ccc(N*)cc1
# Molecular target: T1, human Nav1.7 (Homo sapiens, UniProt Q15858)
# T1 construct: expressed in transfected cells; host or cells: HEK293 stably expressing human Nav1.7
# Experiment: Whole-cell patch-clamp, HEK293 cells stably expressing human Nav1.7 with GFP or FGF13-GFP
# Assay type: cell-based
# Conditions: for Activation / LTI, 2nd Pulse / LTI, 3rd Pulse / LTI, 4th Pulse / Peak Density / Steady-State inactivation / Tau (τ): HEK293 Nav1.7; for Figure 4G, Mean per step (normalized) / Figure 4H, Mean per step (step 1 = 100): N 10
# Procedure: Whole-cell patch clamp electrophysiology
# HEK293-Nav1.7 cells, HEK293 stably expressing human Nav1.6 (HEK-Nav1.6), HEK293 stably expressing human Nav1.5 (HEK-Nav1.5), human hIPSC-derived sensory neurons (RealDRGTM from Anatomic Incorporated 1020F1-1M) and donor-derived DRG neurons were plated at low density on glass coverslips and processed for whole-cell patch clamp electrophysiology in voltage-clamp and/or current clamp mode. Whole-cell patch electrophysiological experiments were conducted following previously published studies (26). Current densities were obtained by dividing INa amplitude by membrane capacitance. Current –voltage relationships were generated by plotting current density as a function of the […]. Conductance (G Na) was calculated by the […]
# where INa is the current amplitude at voltage Vm, and Erev is the Na+ reversal potential.
# Activation curves were derived by plotting normalized GNa as a function of test potential and fitted using […]
# Where GNa,Max is the maximum conductance, Va is the membrane potential of half-maximal activation, Em is the membrane voltage and k is the slope factor. For steady -state inactivation, normalized current amplitude (INa/INa,Max) at the test potential was plotted as a function of prepulse potential (Vm) and fitted using the […]
# Where Vh is the potential of half-maximal inactivation, E m is the membrane voltage, and k is the slope factor.
# Transient INa inactivation decay was estimated with the standard exponential equation. Inactivation time constant (tau, τ) was fitted with the following equation: […]
# where I(t) is the amplitude of the current at time t and Iss is the steady-state current during a single voltage-step.
# The goodness of fitting was determined by correlation coefficient (R), and the cutoff of R was set at 0.85. To observe effects on long-term inactivation (LTI), a four-step protocol was employed during which cells were subjected to four 0 mV, 20 ms depolarization pulses separated by −90 mV, 40 ms recovery intervals. To control for various cell sizes, the current densities were calculated by dividing INa peak current amplitude/membrane capacitance (Cm). To represent the fraction of channels entering into LTI, the peak INa observed during depolarization cycles 2-4 was normalized to the peak INa observed during depolarization cycle 1 (INa/INa,Cycle 1) and plotted as a function of the depolarization cycle.
# The cumulative (frequency-dependent) use-dependency was determined by applying 20 pulses with a depolarization to −10 mV (50 ms duration) and 50 ms recovery intervals with a train of 20 pulses at 10 Hz from a holding potential at -70 mV. The current pulses were normalized to the first reco rded pulse and the currents at the 2nd to 20th pulses were compared. The same train was used to record use-dependency at various frequencies […]
# The rate of recovery from inactivation was recorded at -80 mV with a standard repriming voltage protocol.
# The cells were prepulsed to -20 mV for 20 ms to inactivate all currents, then driven back to the recovery potential (Vrec) for increasing recovery durations before the test pulse to 0 mV. The maximum pulse rate was 0.5 Hz. The […]
# follows previous publications (16). The time constants were estimated from single exponential decay to time courses measured at recovery potentials ranging from -140 to -60 mV with the protocol as mentioned above.
# Electrophysiological Recordings
# HEK293 cells: Electrophysiological recordings in HEK293 stably expressing Nav1.7 (HEK-Nav1.7), Nav1.5 (HEK-Nav1.5) or Nav1.6 (HEK-Nav1.6) were performed at room temperature using a MultiClamp 700B or an Axopatch 200B amplifier (Molecular Devices) after incubating coverslips for 60 minutes either with 0.1% DMSO or 50 μM PW164 or ZL192 in the extracellular solution. The composition of recording solutions consisted of the […]
# following salts: extracellular (mM): 140 NaCl, 3 KCl, 1 MgCl2, 1 CaCl2, 10 HEPES, 10 glucose, pH 7.3; […]
# intracellular (mM): 130 CH3O3 SCs, 1 EGTA, 10 NaCl, 10 HEPES, pH 7.3. […]
# T1 sequence (Q92913 1-192 partner limits assumed): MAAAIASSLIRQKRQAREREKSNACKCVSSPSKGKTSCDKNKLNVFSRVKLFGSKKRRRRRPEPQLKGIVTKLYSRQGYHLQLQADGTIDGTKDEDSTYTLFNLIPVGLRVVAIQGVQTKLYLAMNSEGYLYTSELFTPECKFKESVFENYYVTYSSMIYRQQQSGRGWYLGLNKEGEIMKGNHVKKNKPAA
# T1 sequence (Q15858 1-1977 isoform Q15858-3): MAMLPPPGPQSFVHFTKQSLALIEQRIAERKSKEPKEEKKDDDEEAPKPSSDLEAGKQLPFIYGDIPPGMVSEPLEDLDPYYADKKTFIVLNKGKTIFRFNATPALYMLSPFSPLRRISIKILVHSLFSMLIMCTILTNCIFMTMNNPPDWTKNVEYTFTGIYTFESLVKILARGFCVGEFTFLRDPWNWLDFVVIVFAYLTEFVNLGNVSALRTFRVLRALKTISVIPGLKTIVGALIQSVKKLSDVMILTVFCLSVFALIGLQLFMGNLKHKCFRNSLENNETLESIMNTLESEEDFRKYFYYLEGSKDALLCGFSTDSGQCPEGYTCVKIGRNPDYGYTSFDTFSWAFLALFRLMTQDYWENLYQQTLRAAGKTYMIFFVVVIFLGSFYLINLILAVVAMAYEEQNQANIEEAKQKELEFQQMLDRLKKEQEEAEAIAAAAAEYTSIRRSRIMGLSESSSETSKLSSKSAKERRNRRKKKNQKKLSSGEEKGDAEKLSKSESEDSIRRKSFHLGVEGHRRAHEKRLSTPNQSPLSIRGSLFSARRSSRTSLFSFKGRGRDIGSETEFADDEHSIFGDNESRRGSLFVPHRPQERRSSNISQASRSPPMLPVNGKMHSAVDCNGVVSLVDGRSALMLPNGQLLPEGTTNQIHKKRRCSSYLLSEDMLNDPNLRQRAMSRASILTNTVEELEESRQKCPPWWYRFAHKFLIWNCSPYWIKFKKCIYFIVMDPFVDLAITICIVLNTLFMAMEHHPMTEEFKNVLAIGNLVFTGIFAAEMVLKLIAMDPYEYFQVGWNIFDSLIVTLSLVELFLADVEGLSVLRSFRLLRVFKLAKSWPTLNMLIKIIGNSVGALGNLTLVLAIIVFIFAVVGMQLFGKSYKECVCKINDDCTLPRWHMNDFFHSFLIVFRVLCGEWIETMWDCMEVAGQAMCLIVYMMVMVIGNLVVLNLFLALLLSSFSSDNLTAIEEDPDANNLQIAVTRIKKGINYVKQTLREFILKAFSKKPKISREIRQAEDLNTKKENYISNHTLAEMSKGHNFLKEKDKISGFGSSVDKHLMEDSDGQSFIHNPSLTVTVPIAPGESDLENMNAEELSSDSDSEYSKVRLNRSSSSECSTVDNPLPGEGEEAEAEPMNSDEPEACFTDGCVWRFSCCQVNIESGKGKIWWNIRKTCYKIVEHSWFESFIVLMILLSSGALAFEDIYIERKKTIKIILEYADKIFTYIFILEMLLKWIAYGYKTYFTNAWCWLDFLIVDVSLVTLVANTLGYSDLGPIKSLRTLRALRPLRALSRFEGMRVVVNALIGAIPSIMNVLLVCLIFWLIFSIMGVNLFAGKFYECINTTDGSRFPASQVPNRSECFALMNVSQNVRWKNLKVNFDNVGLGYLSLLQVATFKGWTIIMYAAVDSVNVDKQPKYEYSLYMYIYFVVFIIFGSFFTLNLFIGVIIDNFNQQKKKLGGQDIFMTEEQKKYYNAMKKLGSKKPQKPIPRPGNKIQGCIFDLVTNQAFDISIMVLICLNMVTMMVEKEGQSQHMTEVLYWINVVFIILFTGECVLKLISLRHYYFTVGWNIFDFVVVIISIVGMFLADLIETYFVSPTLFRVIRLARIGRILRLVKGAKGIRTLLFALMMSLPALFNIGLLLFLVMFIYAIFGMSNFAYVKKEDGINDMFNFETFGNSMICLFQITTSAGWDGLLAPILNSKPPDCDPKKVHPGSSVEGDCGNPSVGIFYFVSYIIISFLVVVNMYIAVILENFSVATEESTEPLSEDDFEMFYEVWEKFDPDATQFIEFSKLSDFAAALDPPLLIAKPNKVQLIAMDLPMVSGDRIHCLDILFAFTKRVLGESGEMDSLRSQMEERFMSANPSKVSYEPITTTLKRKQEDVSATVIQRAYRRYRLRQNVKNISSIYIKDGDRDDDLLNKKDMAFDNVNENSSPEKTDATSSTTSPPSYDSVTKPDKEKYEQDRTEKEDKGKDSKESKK
smiles,measurement,setting,value
CC(=O)N[C@@H](Cc1ccccc1)C(=O)N[C@@H](CC(C)C)C(=O)N1CCC[C@H]1C(=O)N[C@@H](CCCCN)C(=O)Nc1ccccc1 [ZL192] (Ac-FLPK-NHPh),Activation,FGF13-GFP + ZL192 50 μM,−26.0 ± 0.8 mV
same,"LTI, 2nd Pulse",FGF13-GFP + ZL192 50 μM,−69.72 ± 5.21 % maximal Na+ current
same,"LTI, 3rd Pulse",FGF13-GFP + ZL192 50 μM,−60.33 ± 5.60 % maximal Na+ current
same,"LTI, 4th Pulse",FGF13-GFP + ZL192 50 μM,−59.34 ± 4.68 % maximal Na+ current
same,Peak Density,FGF13-GFP + ZL192 50 μM,−139.7 ± 12.3 pA/pF
same,Steady-State inactivation,FGF13-GFP + ZL192 50 μM,−66.7 ± 2.6 mV
same,Tau (τ),FGF13-GFP + ZL192 50 μM,1.2 ± 0.06 ms
same,Activation,GFP + ZL192 50 μM,−25.7 ± 0.8 mV
same,"LTI, 2nd Pulse",GFP + ZL192 50 μM,−67.94 ± 3.77 % maximal Na+ current
same,"LTI, 3rd Pulse",GFP + ZL192 50 μM,−62.35 ± 57.35 % maximal Na+ current
same,"LTI, 4th Pulse",GFP + ZL192 50 μM,−60.93 ± 3.90 % maximal Na+ current
same,Peak Density,GFP + ZL192 50 μM,−73.5 ± 8.1 pA/pF
same,Steady-State inactivation,GFP + ZL192 50 μM,−82.8 ± 1.1 mV
same,Tau (τ),GFP + ZL192 50 μM,1.3 ± 0.1 ms
same,EC50,"HEK-Nav1.7 coexpressing FGF13, Fig 4D, read-out: EC50, potentiation of INa",8.5 ± 0.9 µM
same,"Current density pA/pF (Figure 4D), individual cells",Nav1.7 + FGF13-GFP,-168.188 pA/pF and -158.115 pA/pF and -119.568 pA/pF and -127.538 pA/pF and -145.958 pA/pF and -170.525 pA/pF and -75.8621 pA/pF and -128.86 pA/pF and -208.183 pA/pF and -94.6899 pA/pF
same,"pA/pF Dose response (Figure 4D), individual cells","Nav1.7 + FGF13-GFP, Log (conc(M) -4)",-162.222 pA/pF and -131.216 pA/pF and -115.311 pA/pF and -179.051 pA/pF and -125.271 pA/pF and -135.274 pA/pF
same,"pA/pF Dose response (Figure 4D), individual cells","Nav1.7 + FGF13-GFP, Log (conc(M) -4.12)",-133.535 pA/pF and -142.569 pA/pF and -148.889 pA/pF
same,"pA/pF Dose response (Figure 4D), individual cells","Nav1.7 + FGF13-GFP, Log (conc(M) -4.22)",-94.6899 pA/pF and -168.188 pA/pF and -158.115 pA/pF and -119.568 pA/pF and -127.538 pA/pF and -145.958 pA/pF and -170.525 pA/pF and -75.8621 pA/pF and -128.86 pA/pF and -208.183 pA/pF
same,"pA/pF Dose response (Figure 4D), individual cells","Nav1.7 + FGF13-GFP, Log (conc(M) -4.6)",-142.47 pA/pF and -131.114 pA/pF and -147.185 pA/pF and -132.461 pA/pF and -139.907 pA/pF and -150.76 pA/pF and -140.066 pA/pF
same,"pA/pF Dose response (Figure 4D), individual cells","Nav1.7 + FGF13-GFP, Log (conc(M) -4.82)",-154.895 pA/pF and -103.016 pA/pF and -135.94 pA/pF and -128.008 pA/pF and -135.582 pA/pF and -110.637 pA/pF and -137.656 pA/pF (2×)
same,"pA/pF Dose response (Figure 4D), individual cells","Nav1.7 + FGF13-GFP, Log (conc(M) -5)",-99.4552 pA/pF and -132.222 pA/pF and -121.216 pA/pF and -111.311 pA/pF and -169.051 pA/pF and -139.271 pA/pF and -105.274 pA/pF
same,"pA/pF Dose response (Figure 4D), individual cells","Nav1.7 + FGF13-GFP, Log (conc(M) -5.5)",-112.13 pA/pF and -130.035 pA/pF and -105.009 pA/pF and -123.737 pA/pF and -114.192 pA/pF and -90.2752 pA/pF and -117.316 pA/pF
same,"pA/pF Dose response (Figure 4D), individual cells","Nav1.7 + FGF13-GFP, Log (conc(M) -6)",-149.506 pA/pF and -142.879 pA/pF and -66.945 pA/pF and -161.516 pA/pF and -59.6444 pA/pF and -67.5751 pA/pF and -70.501 pA/pF and -91.4611 pA/pF and -141.024 pA/pF and -68.796 pA/pF and -57.939 pA/pF
same,"Figure 4G, Mean per step (normalized)","Nav1.7 + FGF13-GFP, Steps 1",1
same,"Figure 4H, Mean per step (step 1 = 100)","Nav1.7 + FGF13-GFP, Steps 1",100
same,"Figure 4H, Mean per step (step 1 = 100)","Nav1.7 + FGF13-GFP, Steps 2",69.7172
same,"Figure 4G, Mean per step (normalized)","Nav1.7 + FGF13-GFP, Steps 3",0.9185
same,"Figure 4H, Mean per step (step 1 = 100)","Nav1.7 + FGF13-GFP, Steps 3",60.3376
same,"Figure 4H, Mean per step (step 1 = 100)","Nav1.7 + FGF13-GFP, Steps 4",59.3427
same,"Figure 4G, Mean per step (normalized)","Nav1.7 + FGF13-GFP, Steps 5",0.9162
same,"Figure 4G, Mean per step (normalized)","Nav1.7 + FGF13-GFP, Steps 10",0.8818
same,"Figure 4G, Mean per step (normalized)","Nav1.7 + FGF13-GFP, Steps 15",0.8857
